Measured values: patent US11603368B2, “Fused thiophene derivatives and their uses” (ENYO PHARMA, priority 2018, dated 2023)

How the values were obtained:
[1] = biological target: T1, CISD2 Gene Product (NAF-1) (Homo sapiens, UniProt Q8N5K1); assay: Stability of Fe—S cluster binding of purified NEET protein NAF-1; type: biochemical; conditions: for Time (in minutes) to achieve 50% loss of bound cluster (Absorbance 458 nm), CISD2 Gene Product (NAF-1) / Residual cluster bound at end of experiment (Percentage Absorbance 458 nm at time zero), CISD2 Gene Product (NAF-1): pH 6, 37° C., 1:3 protein:compound molar ratio; for Time (in minutes) to achieve 50% loss of bound cluster (Absorbance 458 nm), CISD2 Gene Product (NAF-1): 6 μM compound, run time 500 minutes, Vehicle Control 310; for Residual cluster bound at end of experiment (Percentage Absorbance 458 nm at time zero), CISD2 Gene Product (NAF-1): end of 500 minutes, Vehicle Control 3%; for stabiliser or destabiliser of Fe—S cluster binding, CISD2 Gene Product (NAF-1): time to 50% Fe—S cluster bound loss changed by more than 25% vs Control sample, at the concentrations tested
T1 sequence (Q8N5K1 57-135 limits assumed): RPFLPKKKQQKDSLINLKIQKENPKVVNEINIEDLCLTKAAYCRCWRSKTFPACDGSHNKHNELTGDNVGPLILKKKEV
Description: (§1) The modulator effect on the NEET proteins encoded by human CISD1, CISD2, and CISD3 genes by the compounds of the invention has been tested and is reported below. Particularly, the biochemical function of the NEET proteins is measured by the stability of Fe—S cluster binding of the purified NEET proteins.
(§2) The Fe—S cluster binding capacity of NEET proteins is known to be coordinated by four amino-acids in a stretch of 16 (three Cysteine and one Histidine). As the lability of the Fe—S cluster of NEET proteins is sensitive to the environment, cluster stability measurements are one of the measures of interactions of NEET proteins with small molecules and compounds. NEET protein/2Fe-2S cluster stability can be assessed by monitoring the decay in absorbance of its characteristic 458-nm peak (characteristic of the oxidized 2Fe-2S cluster) over time. Each NEET protein (mitoNEET, NAF-1 and Miner 2) was tested for its Fe—S binding in the absence or presence of a compound according to the invention (see table 2 below). The rate of cluster release (time in minutes to achieve 50% loss of bound Fe—S cluster) was compared for each NEET protein in the presence of one of the compounds of the invention (in a 1:3 protein:compound molar ratio) relative to each protein alone.
(§3) At pH 6, all the three NEET proteins (mitoNEET, NAF-1 and Miner 2) have a characteristic rate of loss of the bound Fe—S cluster that can be measured by the decrease of absorbance at wavelength 458 nm over time, using a spectrophotometer. Thus, Bis-Tris buffer (100 mM Bis-Tris pH6, 100 mM Nacl) was used at pH 6 to dilute either DMSO (Blank sample: Bis-Tris Buffer pH 6, 6 μM DMSO), DMSO and one of the three NEET proteins (Control sample: Bis-Tris Buffer pH 6, 6 μM DMSO, 2 μM purified NEET protein) or DMSO, one of the three NEET proteins and a compound of the invention (Test sample: Bis-Tris Buffer pH 6, 6 μM DMSO, […], 6 μM compound of the invention).
(§4) A reaction mix containing DMSO diluted in the Bis-Tris Buffer with or without a compound of the invention was prepared. The purified NEET protein was the last component added to the reaction mix which was then aliquoted into 4 replicates in 96 wells plates. The absorbance at wavelength 458 nm was taken at 5 minutes intervals at 37° C. with a spectrofluorimeter. The assay run time for CISD2 gene product (NAF-1) was 500 minutes and 180 minutes for both the CISD 1 gene product (mitoNEET) and the CISD3 gene product (Miner 2).
(§5) In addition to time monitoring, residual bound Fe—S cluster to NEET protein was measured at the final point of the spectrometry assay for each Test sample and compared to the Control sample data (in parenthesis table 2). This residual binding is measured by the differential percentage between the absorbance 458 nm at time zero and the absorbance 458 nm at the end of the experiment (i.e. respectively 500 or 180 minutes as described hereabove), showing the percentage of NEET protein still able to bind a Fe—S cluster.
(§6) Analysis of the absorbance enables the time for which 50% loss of bound Fe—S cluster is reached (i.e. a 50% absorbance decrease at 458 nm) for each Test sample and each Control sample (in parenthesis table 2) to be determined. The data are then compared to determine whether the compound of the invention stabilizes or destabilizes the NEET protein/Fe—S cluster binding.

[2] = biological target: T2, CISD1 Gene Product (mitoNEET) (Homo sapiens, UniProt Q9NZ45); assay: Stability of Fe—S cluster binding of purified NEET protein mitoNEET; type: biochemical; conditions: for Time (in minutes) to achieve 50% loss of bound cluster (Absorbance 458 nm), CISD1 Gene Product (mitoNEET) / Residual cluster bound at end of experiment (Percentage Absorbance 458 nm at time zero), CISD1 Gene Product (mitoNEET): pH 6, 37° C., 1:3 protein:compound molar ratio; for Time (in minutes) to achieve 50% loss of bound cluster (Absorbance 458 nm), CISD1 Gene Product (mitoNEET): 6 μM compound, run time 180 minutes, Vehicle Control 80; for Residual cluster bound at end of experiment (Percentage Absorbance 458 nm at time zero), CISD1 Gene Product (mitoNEET): end of 180 minutes, Vehicle Control 16%; for stabiliser or destabiliser of Fe—S cluster binding, CISD1 Gene Product (mitoNEET): time to 50% Fe—S cluster bound loss changed by more than 25% vs Control sample, at the concentrations tested
T2 sequence (Q9NZ45 33-108 limits assumed): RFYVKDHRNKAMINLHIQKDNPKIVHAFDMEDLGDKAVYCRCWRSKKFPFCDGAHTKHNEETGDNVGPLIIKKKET
Description: as §1, §2, §3, §4, §5, §6

[3] = test system: H1N1 (influenza A/New Caledonia/20/99); assay: Antiviral effect on A549 cells infected with H1N1; type: cell-based, H1N1 A/New Caledonia/20/99 virus; conditions: Human A549 cells, MOI of 0.1, 48 h post-infection, MUNANA hydrolysis readout
Description: The antiviral effect of the compounds of the invention has been tested on A549 cell lines infected with H1N1 (influenza A/New Caledonia/20/99).
Human A549 cells (80,000 cells/well in a 96 well plate) were treated with a range of concentration of test molecules and immediately infected by H1N1 A/New Caledonia/20/99 virus (clinical isolate) at MOI of 0.1 in DMEM/1% Penicillin/streptomycin supplemented with 0.25 μg/ml TPCK trypsin (Sigma) and incubated at 37° C. in 5% CO2. 48 h post-infection, supernatants (25 μl) were collected and transferred into a 96-well black flat-bottom plate, mixed with 25 μl PBS with Ca++/Mg++(Thermo Fisher) and 50 μl of 2′-(4-Methylumbelliferyl)-α-D-N-acetylneuraminic acid sodium salt hydrate stock-solution (20 μM, MUNANA, Sigma). Plates were incubated 1 h at 37° C. and reaction is stopped by adding 100 μl of Stop Solution (glycine 0.1 M pH10.7/25% ethanol). The amount of fluorescent product released by MUNANA hydrolysis (4-MU) was measured in a Tecan spectrophotometer with excitation and emission wavelengths of 365 and 450 nm respectively.

[4] = biological target: T3, CISD3 Gene Product (Miner2) (Homo sapiens, UniProt P0C7P0); assay: Stability of Fe—S cluster binding of purified NEET protein Miner2; type: biochemical; conditions: for Time (in minutes) to achieve 50% loss of bound cluster (Absorbance 458 nm), CISD3 Gene Product (Miner2) / Residual cluster bound at end of experiment (Percentage Absorbance 458 nm at time zero), CISD3 Gene Product (DMSO 11%): pH 6, 37° C., 1:3 protein:compound molar ratio; for Time (in minutes) to achieve 50% loss of bound cluster (Absorbance 458 nm), CISD3 Gene Product (Miner2): 6 μM compound, run time 180 minutes, Vehicle Control 60; for Residual cluster bound at end of experiment (Percentage Absorbance 458 nm at time zero), CISD3 Gene Product (DMSO 11%): end of 180 minutes, Vehicle Control 11%; for stabiliser or destabiliser of Fe—S cluster binding, CISD3 Gene Product (Miner2): time to 50% Fe—S cluster bound loss changed by more than 25% vs Control sample, at the concentrations tested
T3 sequence (P0C7P0 15-127): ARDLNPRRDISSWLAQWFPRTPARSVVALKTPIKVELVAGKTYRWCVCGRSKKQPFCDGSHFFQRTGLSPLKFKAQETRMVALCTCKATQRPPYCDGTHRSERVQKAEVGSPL
Description: as §1, §2, §3, §4, §5, §6

[5] = Influenza A virus, H1N1, A549, 48 h

Row | SMILES | Time (in minutes) to achieve 50% loss of bound cluster (Absorbance 458 nm), CISD2 Gene Product (NAF-1) [1] [min] | Residual cluster bound at end of experiment (Percentage Absorbance 458 nm at time zero), CISD2 Gene Product (NAF-1) [1] [%] | stabiliser or destabiliser of Fe—S cluster binding, CISD2 Gene Product (NAF-1) [1] | Time (in minutes) to achieve 50% loss of bound cluster (Absorbance 458 nm), CISD1 Gene Product (mitoNEET) [2] | Residual cluster bound at end of experiment (Percentage Absorbance 458 nm at time zero), CISD1 Gene Product (mitoNEET) [2] [%] | IC50 [3] [nM] | Time (in minutes) to achieve 50% loss of bound cluster (Absorbance 458 nm), CISD3 Gene Product (Miner2) [4] | Residual cluster bound at end of experiment (Percentage Absorbance 458 nm at time zero), CISD3 Gene Product (DMSO 11%) [4] [%] | stabiliser or destabiliser of Fe—S cluster binding, CISD1 Gene Product (mitoNEET) [2] | IC50 [3, 5] [nM] | stabiliser or destabiliser of Fe—S cluster binding, CISD3 Gene Product (Miner2) [4]
1 | CC1CCCc2sc(NC(=O)c3ccccc3)c(C(=O)O)c21 (stereo not shown) [#74] | 390 | 0 | Stabilisers | 90 min | 0 | 182 | 65 min | 5 |  |  | 
2 | Cc1ccccc1C(=O)Nc1sc2c(c1C(=O)O)CCC(C(C)(C)C)C2 (stereo not shown) [#82] | 265 | 27 |  | during 180 minutes | 60 |  | during 180 minutes | 64 | stabilisers | 349 | Stabilisers
3 | CC(C)OC1CCc2c(sc(NC(=O)c3ccccc3)c2C(=O)O)C1 (stereo not shown) [#103] | 415 | 4 | Stabilisers | 95 min | 4 |  | 65 min | 20 |  | 970 | 
4 | CC(C)(C)C1CCc2c(sc(NC(=O)c3ccccc3Cl)c2C(=O)O)C1 (stereo not shown) [#107] | 255 | 21 |  | 105 min | 35 |  | 75 min | 41 | stabilisers | 1150 | Stabilisers
5 | O=C(Nc1sc2c(c1C(=O)O)C(c1ccccc1)CCC2)c1ccccc1 (stereo not shown) [#112] | 425 | 23 | Stabilisers | 100 min | 29 |  | during 180 minutes | 64 | stabilisers | 1370 | Stabilisers
6 | CC(C)(C)C1CCc2c(sc(NC(=O)C3CCCCC3)c2C(=O)O)C1 (stereo not shown) [#115] | 240 | 15 |  | 100 min | 34 |  | 65 min | 28 | stabilisers | 1470 | 
